Literature values as cited in patent US20230233480A1, “TRANSDERMAL THERAPEUTIC SYSTEM FOR THE TRANSDERMAL ADMINISTRATION OF FINGOLIMOD” (LTS LOHMANN THERAPIE-SYSTEME AG, priority 2019, published 2023).

Structure (SMILES): CCCCCCCCc1ccc(CCC(N)(CO)CO)cc1 [fingolimod, 2-amino-2-[2-(4-octylphenyl)ethyl]propane-1,3-diol]
- ratio of Cmax fingolimod phosphate/Cmax fingolimod (humans at steady state after administration of 0.5 mg/day): about 0.5
- accumulation of blood levels from first dose to steady state (humans, once-daily dosing): ~11 fold
